Legend:
[1] = system: IoN-CCl Wistar rats; assay: IoN-CCl neuropathic pain model, von Frey filaments; format: in vivo, rat
Procedure: Chronic constriction injury (CCl) is a common neuropathic pain model. The unilateral ligature of the infraorbital nerve (IoN) in rats, as an animal model of peripheral neuropathic pain, and more specifically, trigeminal neuralgia and trigeminal neuropathy, was performed as described by Desuere and Hans (Deseure et al. J. Vis. Exp. 2015, 103, e53167). Wistar rats (46 in total) were randomly assigned to one of four experimental groups and then were behaviorally tested in a blinded manner. For studying the effects of subchronic treatment with the nanoemulsion formulation of DK-I-56-1 in IoN-CCl rats, DK-I-56-1 (10 mg/kg i.p.) or its vehicle (placebo nanoemulsion i.p.) were injected daily for 14 consecutive days after surgery. Sham-operated rats were treated in parallel. By a procedure slightly modified from Djordjevic et al. (Int. J. Pharm. 2015, 493, 40-54), biocompatible nanoemulsions were prepared by high pressure homogenization at 50° C. […] First, the response to the application of a graded series of three von Frey filaments onto ipsilateral vibrissal pad was measured on pre-operative days −3 and −1 and post-operative days 7, 14, 21, and 28. […] The other parameter, face grooming during body grooming, was manually assessed during 10 min of recording on pre-operative day −2 and post-operative days 2, 4, 8, and 15 (i.e. after 1, 3, 7, and 14 applications of treatment). […]

[2] = Rapid equilibrium dialysis assay, free fraction; format: in vitro ADME; conditions: rat, read-out: free fraction in rat blood
Excerpt: Five pharmacokinetic studies have been performed; four in male Wistar rats and one in male Swiss mice.

With `[2H]C([2H])([2H])Oc1ccc(-n2nc3c4ccc(OC)cc4[nH]cc-3c2=O)cc1` [DK-I-56-1, 7-Methoxy-2-(4-methoxy-d3-phenyl)-2,5-dihydro-3H-pyrazolo[4,3-c]quinolin-3-one] the “anti-allodynic effect, response score to von Frey filaments, post-operative days 14 and 21” value ([1]; 10 mg/kg i.p. nanoemulsion daily for 14 days after surgery) was “statistically significant”, the “anti-allodynic effect, post-operative day 28” value ([1]; 14 days after the last dose) was “disappeared” and the fraction unbound [2] was < 0.005.
